Experimental data reported in EPA's ToxRefDB 2.

How the values were obtained:
[1] = tested on: mouse; conditions: Subchronic oral toxicity in rodents, b6c3f1, Gavage/Intubation, dose end: 13 week, group: systemic
[2] = tested on: rat; conditions: Combined chronic toxicity/carcinogenicity, fischer, Oral, Gavage/Intubation, dose end: 103 week, group: systemic
[3] = tested on: rat; conditions: Subchronic oral toxicity in rodents, fischer, Gavage/Intubation, dose end: 13 week, group: systemic
[4] = tested on: rat; conditions: Sub-acute repeat dose toxicity, sprague dawley, Oral, Gavage/Intubation, dose end: 1 month
[5] = tested on: rat; conditions: Chronic toxicity; sprague dawley; Oral; Gavage/Intubation; dose end: 6 month; group: systemic; systemic / clinical chemistry / chloride / chloride + systemic / clinical chemistry / sodium / sodium + systemic / hematology / hematocrit (…
[6] = tested on: rat; conditions: Fertility (Segment I), sprague dawley, Oral, Gavage/Intubation, dose end: 7 GD, group: parental
[7] = tested on: dog; conditions: Subchronic oral toxicity in nonrodent, beagle, Capsule, dose end: 3 month, group: systemic, systemic / clinical chemistry / alanine aminotransferase (alt/sgpt) / alanine aminotransferase (alt/sgpt) + systemic / clinical chemistry / …
[8] = tested on: mouse; conditions: Subchronic oral toxicity in rodents, cd1, Gavage/Intubation, dose end: 3 month, group: systemic
[9] = tested on: rat; conditions: Fertility (Segment I), sprague dawley, Oral, Gavage/Intubation, dose end: 7 GD
[10] = tested on: dog; conditions: Sub-acute repeat dose toxicity, beagle, Oral, Capsule, dose end: 1 month, group: systemic
[11] = tested on: rat; conditions: Prenatal developmental toxicity study, sprague dawley, Oral, Gavage/Intubation, dose end: 17 GD, group: maternal
[12] = tested on: mouse; conditions: Sub-acute repeat dose toxicity, cd1, Oral, Gavage/Intubation, dose end: 1 month, group: systemic
[13] = tested on: rat; conditions: Prenatal developmental toxicity study, sprague dawley, Oral, Gavage/Intubation, dose end: 17 GD
[14] = tested on: rabbit; conditions: Prenatal developmental toxicity study, new zealand white, Oral, Gavage/Intubation, dose end: 19 GD
[15] = tested on: rat; conditions: Sub-acute repeat dose toxicity; sprague dawley; Oral; Gavage/Intubation; dose end: 1 month; group: systemic; systemic / hematology / blood clotting / blood clotting - prothrombin time + systemic / hematology / platelet / platelet + systemic / organ …
[16] = systemic / in life observation / body weight / body weight
[17] = systemic / in life observation / body weight / body weight + systemic / in life observation / clinical signs / altered breathing rate + …
[18] = systemic / pathology microscopic / liver / cytologic alterations + systemic / pathology microscopic / liver / hyperplasia
[19] = systemic / pathology microscopic / liver / cytologic alterations + systemic / pathology microscopic / liver / hyperplasia + systemic / …
[20] = systemic / in life observation / body weight / body weight + systemic / in life observation / clinical signs / lethargy + systemic / in life…
[21] = group: maternal, reproductive / reproductive performance / estrous cycle / abnormal
[22] = group: systemic, systemic / clinical chemistry / cholesterol / cholesterol + systemic / clinical chemistry / globulins / globulins + systemic / clinical …
[23] = group: systemic, systemic / urinalysis / specific gravity/osmolality / specific gravity/osmolality + systemic / urinalysis / volume / volume
[24] = systemic / in life observation / body weight / body weight gain + systemic / in life observation / food consumption / food consumption
[25] = systemic / in life observation / body weight / body weight gain + systemic / in life observation / food consumption / food consumption + …
[26] = systemic / in life observation / clinical signs / body surface staining
[27] = systemic / clinical chemistry / cholesterol / cholesterol + systemic / clinical chemistry / bilirubin / total bilirubin + systemic / organ …
[28] = systemic / organ weight / liver / absolute + systemic / organ weight / liver / relative to body weight + systemic / organ weight / spleen / …
[29] = group: maternal, reproductive / reproductive performance / implantations / implantations + reproductive / reproductive performance / preimplantation loss / …
[30] = group: parental, systemic / in life observation / body weight / body weight gain
[31] = group: parental, systemic / in life observation / body weight / body weight gain + systemic / in life observation / clinical signs / body surface staining + …
[32] = systemic / clinical chemistry / alkaline phosphatase (alp/alk) / alkaline phosphatase (alp/alk) + systemic / clinical chemistry / …
[33] = systemic / clinical chemistry / lipids / phospholipids + systemic / pathology gross / liver / [other] + systemic / clinical chemistry / …
[34] = systemic / in life observation / body weight / body weight gain + systemic / in life observation / clinical signs / drooping eyelids (ptosis…
[35] = systemic / in life observation / body weight / body weight gain + systemic / in life observation / clinical signs / piloerection + systemic…
[36] = group: developmental, systemic / in life observation / body weight / fetal weight
[37] = group: maternal, reproductive / reproductive performance / preimplantation loss / preimplantation loss + systemic / in life observation / body weight / body …
[38] = group: maternal, systemic / in life observation / body weight / body weight gain + systemic / in life observation / clinical signs / piloerection + systemic…
[39] = group: maternal, reproductive / reproductive performance / postimplantation loss / postimplantation loss + reproductive / reproductive performance / …
[40] = group: maternal, systemic / in life observation / clinical signs / defecation

COC(N)=O [Methyl carbamate]
LEL [1, 16]: 125 mg/kg/day | NEL [1, 16]: < 125 mg/kg/day | LOAEL [1, 17]: > 1500 mg/kg/day | NOAEL [1, 17]: ≥ 1500 mg/kg/day | LOAEL [2, 18]: 100 mg/kg/day | NOAEL [2, 18]: < 100 mg/kg/day | LEL [2, 19]: 100 mg/kg/day | NEL [2, 19]: < 100 mg/kg/day | LOAEL [3, 20]: > 800 mg/kg/day | NEL [3, 20]: 200 mg/kg/day | NOAEL [3, 20]: ≥ 800 mg/kg/day | LEL ([3]; systemic / in life observation / body weight / body weight + systemic / in life observation / clinical signs / lethargy + systemic / organ …): 400 mg/kg/day

COc1ccc(S(=O)(=O)N2C(=O)[C@@](c3ccccc3OC)(N3C[C@H](O)C[C@H]3C(=O)N(C)C)c3cc(Cl)ccc32)c(OC)c1 [Nelivaptan]
LEL [4, 21]: 800 mg/kg/day | LOAEL [4, 21]: > 800 mg/kg/day | NEL [4, 21]: 200 mg/kg/day | NOAEL [4, 21]: ≥ 800 mg/kg/day | LOAEL [4, 22]: 200 mg/kg/day | NOAEL [4, 22]: 50 mg/kg/day | LEL [4, 23]: 50 mg/kg/day | NEL [4, 23]: < 50 mg/kg/day | LEL [5]: 25 mg/kg/day | LOAEL [5]: 25 mg/kg/day | NEL [5]: < 25 mg/kg/day | NOAEL [5]: < 25 mg/kg/day | LOAEL [6, 24]: 750 mg/kg/day | NOAEL [6, 25]: 450 mg/kg/day | LEL [6, 26]: 150 mg/kg/day | NEL [6, 26]: < 150 mg/kg/day | LEL [7]: 100 mg/kg/day | LOAEL [7]: 100 mg/kg/day | NEL [7]: 25 mg/kg/day | NOAEL [7]: 25 mg/kg/day | LOAEL [8, 27]: 1000 mg/kg/day | NOAEL [8, 27]: 500 mg/kg/day | LEL [8, 28]: 500 mg/kg/day | NEL [8, 28]: < 500 mg/kg/day | LEL [9, 29]: 750 mg/kg/day | LOAEL [9, 29]: 750 mg/kg/day | NEL [9, 29]: 600 mg/kg/day | NOAEL [9, 29]: 600 mg/kg/day | LEL [9, 30]: 100 mg/kg/day | NEL [9, 30]: < 100 mg/kg/day | LOAEL [9, 31]: 750 mg/kg/day | NOAEL [9, 31]: 600 mg/kg/day | LOAEL [10, 32]: 200 mg/kg/day | NOAEL [10, 32]: 50 mg/kg/day | LEL [10, 33]: 50 mg/kg/day | NEL [10, 33]: < 50 mg/kg/day | LEL [11, 24]: 150 mg/kg/day | NEL [11, 24]: < 150 mg/kg/day | LOAEL [11, 25]: > 750 mg/kg/day | NOAEL [11, 25]: ≥ 750 mg/kg/day | LOAEL [12, 34]: > 4000 mg/kg/day | NOAEL [12, 34]: ≥ 4000 mg/kg/day | LEL [12, 35]: 1000 mg/kg/day | NEL [12, 35]: < 1000 mg/kg/day | LEL [13, 36]: 750 mg/kg/day | LOAEL [13, 36]: 750 mg/kg/day | NEL [13, 36]: 300 mg/kg/day | NOAEL [13, 36]: 300 mg/kg/day | LOAEL [13, 37]: > 1500 mg/kg/day | NOAEL [13, 37]: ≥ 1500 mg/kg/day | LEL [13, 38]: 300 mg/kg/day | NEL [13, 38]: < 300 mg/kg/day | LEL [14, 36]: 2000 mg/kg/day | LOAEL [14, 36]: > 2000 mg/kg/day | NEL [14, 36]: 1000 mg/kg/day | NOAEL [14, 36]: ≥ 2000 mg/kg/day | LOAEL [14, 39]: 1000 mg/kg/day | NOAEL [14, 39]: 500 mg/kg/day | LEL [14, 40]: 250 mg/kg/day | NEL [14, 40]: < 250 mg/kg/day | LEL [15]: 25 mg/kg/day | LOAEL [15]: > 200 mg/kg/day | NEL [15]: < 25 mg/kg/day | NOAEL [15]: ≥ 200 mg/kg/day
